Assay results published in patent publication US7842695B2, “Substituted pyrazole compounds” (Merck Patent GmbH, priority 2003, dated 2010).

Experiments:
5 HT2C receptor = biological target: T1, 5 HT2C receptor (Homo sapiens, UniProt P28335); test: affinity to the 5 HT2C receptor; format: binding
T1 sequence (P28335 33-458): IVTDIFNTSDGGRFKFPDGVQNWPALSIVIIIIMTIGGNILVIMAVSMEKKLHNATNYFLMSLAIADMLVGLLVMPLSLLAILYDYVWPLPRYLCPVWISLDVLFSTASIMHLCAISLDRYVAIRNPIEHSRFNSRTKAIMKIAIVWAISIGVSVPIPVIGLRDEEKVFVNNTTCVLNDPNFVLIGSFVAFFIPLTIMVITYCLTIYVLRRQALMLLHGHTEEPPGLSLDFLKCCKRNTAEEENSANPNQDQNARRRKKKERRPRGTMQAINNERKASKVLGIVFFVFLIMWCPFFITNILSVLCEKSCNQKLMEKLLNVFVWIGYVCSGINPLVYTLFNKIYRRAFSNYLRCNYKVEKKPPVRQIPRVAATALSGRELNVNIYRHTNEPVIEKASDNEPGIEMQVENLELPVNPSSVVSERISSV

5-HT2A receptors = 5-HT2A receptors (UniProt P14842); test: in-vitro affinity to 5-HT2A receptors, [3H]ketanserine displacement (Example A1); format: binding
From the text: The 5-HT2A receptors are exposed both to [^3H]ketanserine (a substance known for its affinity to the receptor) and also to the test compound. The decrease in the affinity of [^3H]ketanserine to the receptor is an indication of the affinity of the test substance to the 5-HT2A receptor.

Row | Compound | IC50 (5 HT2C receptor) | IC50 (5-HT2A receptors)
1 | OC1CCN(Cc2cnn(-c3ccc(-c4ccc5c(c4)OCCO5)cc3)c2-c2ccco2)C1 (stereo not shown) [Example 544, 1-{1-[4-(2,3-Dihydrobenzo-1,4-dioxin-6-yl)phenyl]-5-furan-2-yl-1H-pyrazol-4-ylmethyl}pyrrolidin-3-ol] | 470 nM | 4.3 nM
2 | Fc1ccc(-c2ccc(-n3ncc(CN4CCN(C5CCCC5)CC4)c3-c3ccco3)cc2)cc1 [Example 545, 1-Cyclopentyl-4-[1-(4′-fluorobiphenyl-4-yl)-5-furan-2-yl-1H-pyrazol-4-ylmethyl]piperazine] | 2000 nM | 4.8 nM
3 | COc1ccc(-c2ccc(-n3ncc(CN4CCN(C)CC4)c3-c3ccco3)cc2)cc1 [Example 546, 1-[5-Furan-2-yl-1-(4′-methoxybiphenyl-4-yl)-1H-pyrazol-4-ylmethyl]-4-methylpiperazine] | 360 nM | 4.8 nM
4 | CC(C)(C)OC(=O)N1CCN(Cc2cnn(-c3ccc(-c4ccc5c(c4)OCO5)cc3)c2-c2ccco2)CC1 [Example 547, tert-Butyl 4-[1-(4-benzo-1,3-dioxol-5-ylphenyl)-5-furan-2-yl-1H-pyrazol-4-ylmethyl]piperazine-1-carboxylate] | 1000 nM | 4.8 nM
5 | OC1CCN(Cc2cnn(-c3ccc(-c4ccc5c(c4)OCO5)cc3)c2-c2ccco2)C1 (stereo not shown) [Example 548, 1-[1-(4-Benzo-1,3-dioxol-5-ylphenyl)-5-furan-2-yl-1H-pyrazol-4-ylmethyl]pyrrolidin-3-ol] | 410 nM | 5.1 nM
6 | CN1CCN(Cc2cnn(-c3ccc(-c4cccc(F)c4)cc3)c2-c2ccccc2F)CC1 [Example 549, 1-[1-(3′-Fluorobiphenyl-4-yl)-5-(2-fluorophenyl)-1H-pyrazol-4-ylmethyl]-4-methylpiperazine] | 460 nM | 5.4 nM
7 | CN1CCN(Cc2cnn(-c3ccc(-c4ccc5c(c4)OCO5)cc3)c2-c2ccco2)CC1 [Example 550, 1-[1-(4-Benzo-1,3-dioxol-5-ylphenyl)-5-furan-2-yl-1H-pyrazol-4-ylmethyl]-4-methylpiperazine] | 170 nM | 5.8 nM
8 | CCN1CCN(Cc2cnn(-c3ccc(-c4ccc(OC)cc4)cc3)c2-c2ccco2)CC1 [Example 551, 1-Ethyl-4-[5-furan-2-yl-1-(4′-methoxybiphenyl-4-yl)-1H-pyrazol-4-ylmethyl]piperazine] | 495 nM | 6.1 nM
9 | COc1ccc(-c2ccc(-n3ncc(CN4CCN(C5CCCC5)CC4)c3-c3ccco3)cc2)cc1 [Example 552, 1-Cyclopentyl-4-[5-furan-2-yl-1-(4′-methoxybiphenyl-4-yl)-1H-pyrazol-4-ylmethyl]piperazine] | 2950 nM | 6.1 nM
10 | Cc1ccoc1-c1c(CN(C)C)cnn1-c1ccc(-c2ccc(F)cc2)cc1 [Example 553, [1-(4′-Fluorobiphenyl-4-yl)-5-(3-methyl-2-furanyl)-1H-pyrazol-4-ylmethyl]dimethylamine] | 360 nM | 6.5 nM
11 | c1coc(-c2c(CN3CCN(C4CCCC4)CC3)cnn2-c2ccc(-c3ccc4c(c3)OCCO4)cc2)c1 [Example 554, 1-Cyclopentyl-4-{1-[4-(2,3-dihydrobenzo-1,4-dioxin-6-yl)phenyl]-5-furan-2-yl-1H-pyrazol-4-ylmethyl}piperazine] | 1300 nM | 7 nM
12 | CN1CCN(Cc2cnn(-c3ccc(-c4ccc(F)cc4)cc3)c2-c2ccsc2)CC1 [Example 556, 1-[1-(4′-Fluorobiphenyl-4-yl)-5-thiophen-3-yl-1H-pyrazol-4-ylmethyl]-4-methylpiperazine] | 630 nM | 7.8 nM
13 | CCN1CCN(Cc2cnn(-c3ccc(-c4ccc5c(c4)OCCO5)cc3)c2-c2ccco2)CC1 [Example 557, 1-{1-[4-(2,3-Dihydrobenzo-1,4-dioxin-6-yl)phenyl]-5-furan-2-yl-1H-pyrazol-4-ylmethyl}-4-ethylpiperazine] | 349 nM | 8 nM
14 | CC(C)N1CCN(Cc2cnn(-c3ccc(-c4ccc(F)cc4)cc3)c2-c2ccco2)CC1 [Example 558, 1-[1-(4′-Fluorobiphenyl-4-yl)-5-furan-2-yl-1H-pyrazol-4-ylmethyl]-4-isopropylpiperazine] | 370 nM | 8.2 nM
15 | CN1CCN(Cc2cnn(-c3ccc(-c4cccc(F)c4)cc3)c2-c2ccco2)CC1 [Example 559, 1-[1-(3′-Fluorobiphenyl-4-yl)-5-furan-2-yl-1H-pyrazol-4-ylmethyl]-4-methylpiperazine] | 250 nM | 8.8 nM
16 | Cc1ccoc1-c1c(CN2CCN(C)CC2)cnn1-c1ccc(-c2ccc(F)cc2)cc1 [Example 560, 1-[1-(4′-Fluorobiphenyl-4-yl)-5-(3-methyl-2-furanyl)-1H-pyrazol-4-ylmethyl]-4-methylpiperazine] | 780 nM | 8.9 nM

Row | Compound | IC50 (5 HT2C receptor) | IC50 (5-HT2A receptors)
17 | Fc1ccc(-c2ccc(-n3ncc(CN4CCC(COc5ccccn5)CC4)c3-c3ccco3)cc2)cc1 [Example 561, 2-{1-[1-(4′-Fluorobiphenyl-4-yl)-5-furan-2-yl-1H-pyrazol-4-ylmethyl]piperidin-4-ylmethoxy}pyridine] | 1000 nM | 9 nM
18 | OC1CCN(Cc2cnn(-c3ccc(-c4cccc(F)c4)cc3)c2-c2ccco2)C1 (stereo not shown) [Example 562, 1-[1-(3′-Fluorobiphenyl-4-yl)-5-furan-2-yl-1H-pyrazol-4-ylmethyl]pyrrolidin-3-ol] | 530 nM | 9.1 nM
19 | CN1CCN(Cc2cnn(-c3ccc(-c4ccc5c(c4)OCO5)cc3)c2-c2ccccc2F)CC1 [Example 563, 1-[1-(4-Benzo-1,3-dioxol-5-ylphenyl)-5-(2-fluorophenyl)-1H-pyrazol-4-ylmethyl]-4-methylpiperazine] | 510 nM | 10 nM
20 | COc1ccc(-c2ccc(-n3ncc(CN4CCC(O)C4)c3-c3ccco3)cc2)cc1 (stereo not shown) [Example 564, 1-[5-Furan-2-yl-1-(4′-methoxybiphenyl-4-yl)-1H-pyrazol-4-ylmethyl]pyrrolidin-3-ol] | 630 nM | 10 nM
21 | c1coc(-c2c(CN3CCN(C4CCCC4)CC3)cnn2-c2ccc(-c3ccc4c(c3)OCO4)cc2)c1 [Example 569, 1-[1-(4-Benzo-1,3-dioxol-5-ylphenyl)-5-furan-2-yl-1H-pyrazol-4-ylmethyl]-4-cyclopentylpiperazine] | 1000 nM | 12 nM
22 | CCN1CCN(Cc2cnn(-c3ccc(-c4cccc(F)c4)cc3)c2-c2ccco2)CC1 [Example 570, 1-Ethyl-4-[1-(3′-fluorobiphenyl-4-yl)-5-furan-2-yl-1H-pyrazol-4-ylmethyl]piperazine] | 500 nM | 12 nM
23 | COc1ccc(-c2ccc(-n3ncc(CCN4CCC(O)C4)c3-c3ccco3)cc2)cc1 (stereo not shown) [Example 571, 1-{2-[5-Furan-2-yl-1-(4′-methoxybiphenyl-4-yl)-1H-pyrazol-4-yl]ethyl}pyrrolidin-3-ol] | 800 nM | 12 nM
24 | CN1CCN(Cc2cnn(-c3ccc(-c4ccsc4)cc3)c2-c2ccccc2F)CC1 [Example 574, 1-[5-(2-Fluorophenyl)-1-(4-thiophen-3-ylphenyl)-1H-pyrazol-4-ylmethyl]-4-methylpiperazine] | 520 nM | 14 nM
25 | CN(C)Cc1cnn(-c2ccc(-c3ccc(F)cc3)cc2)c1-c1ccoc1 [Example 576, [1-(4′-Fluorobiphenyl-4-yl)-5-furan-3-yl-1H-pyrazol-4-ylmethyl]dimethylamine] | 180 nM | 16 nM
26 | CCN1CCN(Cc2cnn(-c3ccc(-c4ccc(F)cc4)cn3)c2-c2ccco2)CC1 [Example 583, 1-Ethyl-4-{1-[5-(4-fluorophenyl)pyridin-2-yl]-5-furan-2-yl-1H-pyrazol-4-ylmethyl}piperazine] | 1000 nM | 18 nM
27 | COc1ccc(-c2ccc(-n3ncc(CN4CCN(C)CC4)c3-c3ccccc3F)cc2)cc1F [Example 585, 1-[1-(3′-Fluoro-4′-methoxybiphenyl-4-yl)-5-(2-fluorophenyl)-1H-pyrazol-4-ylmethyl]-4-methylpiperazine] | 760 nM | 19 nM
28 | CN1CCN(Cc2cnn(-c3ccc(-c4ccc(F)cc4)cc3)c2-c2ccoc2)CC1 [Example 586, 1-[1-(4′-Fluorobiphenyl-4-yl)-5-furan-3-yl-1H-pyrazol-4-ylmethyl]-4-methylpiperazine] | 1000 nM | 19 nM
29 | Fc1ccccc1-c1c(CN2CCNCC2)cnn1-c1ccc(C(F)(F)F)cn1 [Example 588, 1-[5-(2-Fluorophenyl)-1-(5-trifluoromethylpyridin-2-yl)-1H-pyrazol-4-ylmethyl]piperazine] | 1000 nM | 20 nM
30 | CN1CCN(Cc2cnn(-c3ccc(-c4ccc(Cl)s4)cc3)c2-c2ccccc2F)CC1 [Example 589, 1-[1-[4-(5-Chlorothiophen-2-yl)phenyl]-5-(2-fluorophenyl)-1H-pyrazol-4-ylmethyl]-4-methylpiperazine] | 2800 nM | 20 nM
31 | CN1CCN(Cc2cnn(-c3ccc(-c4ccc(F)cc4)cn3)c2-c2ccco2)CC1 [Example 590, 1-{1-[5-(4-Fluorophenyl)pyridin-2-yl]-5-furan-2-yl-1H-pyrazol-4-ylmethyl}-4-methylpiperazine] | 1000 nM | 20 nM
32 | Fc1ccc(-c2ccc(-n3ncc(CN4CCN(C5CCCC5)CC4)c3-c3ccco3)nc2)cc1 [Example 591, 1-Cyclopentyl-4-{1-[5-(4-fluorophenyl)pyridin-2-yl]-5-furan-2-yl-1H-pyrazol-4-ylmethyl}piperazine] | 1000 nM | 20 nM
